Measured values as given in US9458133B2, “Isoquinolines as potassium ion channel inhibitors” (BRISTOL-MYERS SQUIBB COMPANY, priority 2013, dated 2016).

target: T1, human Kv 1.5 (Homo sapiens, UniProt P22460); assay: Block of IKur current in patch clamped L-929 cells stably expressing human Kv1.5; assay type: cell-based; conditions: L929, 0.3 μM; patch clamped mammalian L-929 cells expressing human Kv1.5 (IKur); read-out: KV1_5% Inh L929 @0.3 μM
T1 construct: expressed in transfected cells; host or cells: mouse L-929 fibroblasts stably expressing human Kv1.5
Description: Synders, D. J. et al., “A rapidly activating and slowly inactivating potassium channel cloned from human heart: functional analysis after stable mammalian cell culture expression”, J. Gen. Physiol., 101:513-543 (1993). […]

T1 sequence (P22460 whole entry): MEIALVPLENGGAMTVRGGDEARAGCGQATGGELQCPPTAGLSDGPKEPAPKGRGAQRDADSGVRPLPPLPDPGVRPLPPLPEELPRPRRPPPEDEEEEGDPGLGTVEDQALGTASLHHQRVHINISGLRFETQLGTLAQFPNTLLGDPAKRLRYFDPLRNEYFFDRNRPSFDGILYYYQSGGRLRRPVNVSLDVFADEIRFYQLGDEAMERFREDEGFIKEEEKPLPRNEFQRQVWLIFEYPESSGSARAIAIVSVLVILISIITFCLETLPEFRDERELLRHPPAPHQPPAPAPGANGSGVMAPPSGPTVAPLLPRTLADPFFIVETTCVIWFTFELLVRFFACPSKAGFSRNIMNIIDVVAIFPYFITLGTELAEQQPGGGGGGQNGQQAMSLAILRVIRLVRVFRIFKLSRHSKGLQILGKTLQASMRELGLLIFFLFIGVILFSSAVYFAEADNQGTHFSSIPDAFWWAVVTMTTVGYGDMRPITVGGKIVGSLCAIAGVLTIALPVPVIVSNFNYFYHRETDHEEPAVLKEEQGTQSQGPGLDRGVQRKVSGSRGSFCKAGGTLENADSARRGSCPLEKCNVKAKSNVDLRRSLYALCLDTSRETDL

Row | inhibition at 0.3 µM | Structure (SMILES)
1 | 96.2% | CC(=O)Nc1cccc(-c2c(Cl)nc(NCc3ccccn3)c3c(-c4ccccc4)cccc23)c1 [Example 60, N-(3-(3-chloro-8-phenyl-1-(pyridin-2-ylmethylamino)isoquinolin-4-yl)phenyl)acetamide]
2 | 67.5% | CC(Nc1nc(Cl)c(-c2cccc(S(N)(=O)=O)c2)c2cccc(-c3ccccc3)c12)c1ccccc1 (centres unmarked) [Example 79, 3-(3-chloro-8-phenyl-1-(1-phenylethylamino)isoquinolin-4-yl)benzenesulfonamide]

Further lines, the compound ahead of its results:

Row | Structure (SMILES) | inhibition at 0.3 µM
3 | NS(=O)(=O)c1ccc(-c2c(Cl)nc(NCc3ccccn3)c3c(-c4ccccc4)cccc23)cc1 [Example 55, 4-(3-chloro-8-phenyl-1-(pyridin-2-ylmethylamino)isoquinolin-4-yl)benzenesulfonamide] | 97.6%
4 | Cc1c(-c2cncc(S(N)(=O)=O)c2)nc(NCc2ccccn2)c2c(-c3ccccc3)cccc12 [Example 8, 5-(4-Methyl-8-phenyl-1-(pyridin-2-ylmethylamino)isoquinolin-3-yl)pyridine-3-sulfonamide] | 61.4%
5 | CC(=O)Nc1ccc(-c2cc3cccc(-c4ccccc4)c3c(NCc3ccccn3)n2)cc1 [Example 31, N-(4-(8-phenyl-1-(pyridin-2-ylmethylamino)isoquinolin-3-yl)phenyl)acetamide] | 15.2%
